# Where “and” joins values, the source holds several entries; their conditions need not be identical. Equal values may be shown once. Read-outs that look alike come from different tables or passages of the source.
# Key:
# [1] = Cytotoxicity on MRC-5 fibroblasts (resazurin); type: cell-based, human; conditions: human, MRC-5SV2 human embryonic lung fibroblasts
# Method in brief: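 MRC-5SV2 cells (3 × 10^4 cells mL^−1) in MEM with 5% foetal calf serum exposed to compounds for 3 days at 37 °C, 5% CO2. Viability read by resazurin fluorescence (10 µg mL^−1 final, 4 h; λex 550/λem 590 nm) against untreated and medium controls; EC50 derived.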
# [2] = target: Lister 427WT T. b. brucei; experiment: Adenosine deaminase susceptibility (drug sensitivity with/without 2 µM deoxycoformycin); type: cell-based, Trypanosoma brucei brucei; conditions: for EC50: Trypanosoma brucei, Lister 427WT, mean ± SEM, n=3
# [3] = test system: B48: pentamidine, diminazene and melaminophenyl arsenical resistant T. brucei line; experiment: microbe, parasite or virus in culture; type: cell-based, Trypanosoma brucei brucei
# [4] = test system: T. brucei BSF s427 wildtype cells; experiment: Growth assays of T. brucei (trypanocidal/trypanostatic effect); type: cell-based, Trypanosoma brucei
# Method in brief: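 Cells were seeded at 1×10^5 cells/mL in HMI-9 with 10% FBS and 2 μM 2'-deoxycoformycin, then counted manually at intervals up to 48 h. For wash-out, cultures at 10^5 cells/mL (37 °C/5% CO2) were split at 8 h and 48 h and resuspended with or without compound, with counts every 24 h (detection limit 10^4 cells/mL).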
smiles,measurement,setting,value
"Nc1ncnc2c1ccn2[C@@H]1O[C@H](CO)C[C@H]1O [Compound 9, 3’-deoxytubercidin]",EC50 at 3 day,"[1]; cytotoxicity in human MRC-5 fibroblasts, mean and SEM, read-out: MRC-5 EC50",> 64 µM
same,EC50 at 3 day,"[1]; source data, read-out: MRC-5 EC50, single measurements",> 64 µM
same,effect of adenosine deaminase inhibition (2’-deoxycoformycin) on EC50,[2],not significantly affected
same,EC50,"[2]; absence of deoxycoformycin, read-out: T. b. brucei EC50, -Dcf",37 ± 3 nM
same,EC50,"[2]; presence of 2 µM deoxycoformycin, read-out: T. b. brucei EC50, +Dcf",49 ± 9 nM
same,EC50,"[3]; Trypanosoma brucei, mean and SEM, n = 3, read-out: B48 EC50",368 ± 13 nM
same,EC50,"[3]; Trypanosoma brucei, source data, read-out: B48 EC50, single determinations",378 nM
same,EC50,"[3]; source data, read-out: B48 EC50, single determinations",383 nM and 343 nM
same,AVG of cells/mL,"[4]; 2xEC50, 2 h, experiment 1",105000 cells/mL
same,Cells/mL,"[4]; 2xEC50, 2 h, experiment 1",117500 Cells/mL and 92500 Cells/mL
same,Counts,"[4]; 2xEC50, 2 h, experiment 1",47 and 37
same,AVG of cells/mL,"[4]; 2xEC50, 2 h, experiment 2",147500 cells/mL
same,Cells/mL,"[4]; 2xEC50, 2 h, experiment 2",140000 Cells/mL and 155000 Cells/mL
same,Counts,"[4]; 2xEC50, 2 h, experiment 2",56 and 62
same,AVG of cells/mL,"[4]; 2xEC50, 4 h, experiment 1",158750 cells/mL
same,Cells/mL,"[4]; 2xEC50, 4 h, experiment 1",160000 Cells/mL and 157500 Cells/mL
same,Counts,"[4]; 2xEC50, 4 h, experiment 1",63 and 64
same,AVG of cells/mL,"[4]; 2xEC50, 4 h, experiment 2",186250 cells/mL
same,Cells/mL,"[4]; 2xEC50, 4 h, experiment 2",177500 Cells/mL and 195000 Cells/mL
same,Counts,"[4]; 2xEC50, 4 h, experiment 2",78 and 71
same,AVG of cells/mL,"[4]; 2xEC50, 6 h, experiment 1",160000 cells/mL
same,Cells/mL,"[4]; 2xEC50, 6 h, experiment 1",170000 Cells/mL and 150000 Cells/mL
same,Counts,"[4]; 2xEC50, 6 h, experiment 1",68 and 60
same,AVG of cells/mL,"[4]; 2xEC50, 6 h, experiment 2",210000 cells/mL
same,Cells/mL,"[4]; 2xEC50, 6 h, experiment 2",192500 Cells/mL and 227500 Cells/mL
same,Counts,"[4]; 2xEC50, 6 h, experiment 2",77 and 91
same,AVG of cells/mL,"[4]; 2xEC50, 8 h, experiment 1",167500 cells/mL
same,Cells/mL,"[4]; 2xEC50, 8 h, experiment 1",162500 Cells/mL and 172500 Cells/mL
same,Counts,"[4]; 2xEC50, 8 h, experiment 1",65 and 69
same,AVG of cells/mL,"[4]; 2xEC50, 8 h, experiment 2",156250 cells/mL
same,Cells/mL,"[4]; 2xEC50, 8 h, experiment 2",162500 Cells/mL and 150000 Cells/mL
same,Counts,"[4]; 2xEC50, 8 h, experiment 2",65 and 60
same,AVG of cells/mL,"[4]; 2xEC50, 12 h, experiment 1",152500 cells/mL
same,Cells/mL,"[4]; 2xEC50, 12 h, experiment 1",165000 Cells/mL and 140000 Cells/mL
same,Counts,"[4]; 2xEC50, 12 h, experiment 1",66 and 56
same,AVG of cells/mL,"[4]; 2xEC50, 12 h, experiment 2",145000 cells/mL
same,Cells/mL,"[4]; 2xEC50, 12 h, experiment 2",145000 Cells/mL
same,Counts,"[4]; 2xEC50, 12 h, experiment 2",58
same,AVG of cells/mL,"[4]; 2xEC50, 24 h, experiment 1",86250 cells/mL
same,Cells/mL,"[4]; 2xEC50, 24 h, experiment 1",77500 Cells/mL and 95000 Cells/mL
same,Counts,"[4]; 2xEC50, 24 h, experiment 1",31 and 38
same,AVG of cells/mL,"[4]; 2xEC50, 24 h, experiment 2",47500 cells/mL
same,Cells/mL,"[4]; 2xEC50, 24 h, experiment 2",37500 Cells/mL and 57500 Cells/mL
same,Counts,"[4]; 2xEC50, 24 h, experiment 2",15 and 23
same,AVG of cells/mL,"[4]; 2xEC50, 36 h, experiment 1",76250 cells/mL
same,Cells/mL,"[4]; 2xEC50, 36 h, experiment 1",87500 Cells/mL and 65000 Cells/mL
same,Counts,"[4]; 2xEC50, 36 h, experiment 1",35 and 26
same,AVG of cells/mL,"[4]; 2xEC50, 36 h, experiment 2",6250 cells/mL
same,Cells/mL,"[4]; 2xEC50, 36 h, experiment 2",7500 Cells/mL and 5000 Cells/mL
same,Counts,"[4]; 2xEC50, 36 h, experiment 2",3 and 2
same,Cells/mL,"[4]; 2xEC50, 48 h, experiment 1",0 Cells/mL
same,Counts,"[4]; 2xEC50, 48 h, experiment 1",0
same,AVG of cells/mL,"[4]; 2xEC50, 48 h, experiment 2",2500 cells/mL
same,effect on T. brucei bloodstream forms in culture (cidal/static),[4]; 2× and 5× EC50,trypanocidal
same,AVG of cells/mL,"[4]; 5xEC50, 2 h, experiment 1",131250 cells/mL
same,Cells/mL,"[4]; 5xEC50, 2 h, experiment 1",135000 Cells/mL and 127500 Cells/mL
same,Counts,"[4]; 5xEC50, 2 h, experiment 1",54 and 51
same,AVG of cells/mL,"[4]; 5xEC50, 2 h, experiment 2",135000 cells/mL
same,Cells/mL,"[4]; 5xEC50, 2 h, experiment 2",127500 Cells/mL and 142500 Cells/mL
same,Counts,"[4]; 5xEC50, 2 h, experiment 2",51 and 57
same,AVG of cells/mL,"[4]; 5xEC50, 4 h, experiment 1",138750 cells/mL
same,Cells/mL,"[4]; 5xEC50, 4 h, experiment 1",117500 Cells/mL and 160000 Cells/mL
same,Counts,"[4]; 5xEC50, 4 h, experiment 1",64 and 47
same,AVG of cells/mL,"[4]; 5xEC50, 4 h, experiment 2",181250 cells/mL
same,Cells/mL,"[4]; 5xEC50, 4 h, experiment 2",177500 Cells/mL and 185000 Cells/mL
same,Counts,"[4]; 5xEC50, 4 h, experiment 2",74 and 71
same,AVG of cells/mL,"[4]; 5xEC50, 6 h, experiment 1",140000 cells/mL
same,Cells/mL,"[4]; 5xEC50, 6 h, experiment 1",127500 Cells/mL and 152500 Cells/mL
same,Counts,"[4]; 5xEC50, 6 h, experiment 1",51 and 61
same,AVG of cells/mL,"[4]; 5xEC50, 6 h, experiment 2",145000 cells/mL
same,Cells/mL,"[4]; 5xEC50, 6 h, experiment 2",135000 Cells/mL and 155000 Cells/mL
same,Counts,"[4]; 5xEC50, 6 h, experiment 2",54 and 62
same,AVG of cells/mL,"[4]; 5xEC50, 8 h, experiment 1",136250 cells/mL
same,Cells/mL,"[4]; 5xEC50, 8 h, experiment 1",115000 Cells/mL and 157500 Cells/mL
same,Counts,"[4]; 5xEC50, 8 h, experiment 1",46 and 63
same,AVG of cells/mL,"[4]; 5xEC50, 8 h, experiment 2",137500 cells/mL
same,Cells/mL,"[4]; 5xEC50, 8 h, experiment 2",135000 Cells/mL and 140000 Cells/mL
same,Counts,"[4]; 5xEC50, 8 h, experiment 2",54 and 56
same,AVG of cells/mL,"[4]; 5xEC50, 12 h, experiment 1",127500 cells/mL
same,Cells/mL,"[4]; 5xEC50, 12 h, experiment 1",135000 Cells/mL and 120000 Cells/mL
same,Counts,"[4]; 5xEC50, 12 h, experiment 1",54 and 48
same,AVG of cells/mL,"[4]; 5xEC50, 12 h, experiment 2",125000 cells/mL
same,Cells/mL,"[4]; 5xEC50, 12 h, experiment 2",125000 Cells/mL
same,Counts,"[4]; 5xEC50, 12 h, experiment 2",50
same,AVG of cells/mL,"[4]; 5xEC50, 24 h, experiment 1",47500 cells/mL
same,Cells/mL,"[4]; 5xEC50, 24 h, experiment 1",45000 Cells/mL and 50000 Cells/mL
same,Counts,"[4]; 5xEC50, 24 h, experiment 1",18 and 20
same,AVG of cells/mL,"[4]; 5xEC50, 24 h, experiment 2",25000 cells/mL
same,Cells/mL,"[4]; 5xEC50, 24 h, experiment 2",27500 Cells/mL and 22500 Cells/mL
same,Counts,"[4]; 5xEC50, 24 h, experiment 2",11 and 9
same,AVG of cells/mL,"[4]; 5xEC50, 36 h, experiment 1",22500 cells/mL
same,Cells/mL,"[4]; 5xEC50, 36 h, experiment 1",25000 Cells/mL and 20000 Cells/mL
same,Counts,"[4]; 5xEC50, 36 h, experiment 1",10 and 8
same,AVG of cells/mL,"[4]; 5xEC50, 36 h, experiment 2",3750 cells/mL
same,Cells/mL,"[4]; 5xEC50, 36 h, experiment 2",5000 Cells/mL and 2500 Cells/mL
same,Counts,"[4]; 5xEC50, 36 h, experiment 2",2 and 1
same,Cells/mL,"[4]; 5xEC50, 48 h, experiment 1",0 Cells/mL
same,Counts,"[4]; 5xEC50, 48 h, experiment 1",0
same,AVG of cells/mL,"[4]; 5xEC50, 48 h, experiment 2",0 cells/mL
same,Cells/mL,"[4]; 5xEC50, 48 h, experiment 2",0 Cells/mL
same,Counts,"[4]; 5xEC50, 48 h, experiment 2",0

# Source: publication PMC6895180 (Nature Communications, 2019)
